Measurements from patent US10052320B2, “Substituted quinoxalines as FGFR kinase inhibitors” (ASTEX THERAPEUTICS LIMITED, priority 2011, dated 2018).

Key:
[1] = target: Ba/F3-FGFR4-transfected cells (Homo sapiens, UniProt P22455); test: Ba/F3-FGFR4 cellular proliferation assay, Alamar Blue; type: cell-based
Method: Ba/F3-FGFR4 (Cellular Proliferation Assay)
(§1) In a 384 well plate, 100 nl of compound dilution in DMSO was sprayed before adding 50 μl cell culture medium (phenol red free RPMI-1640, 10% FBS, 2 mM L-Glutamine and 50 μg/ml Gentamycin) containing 20000 cells per well of Ba/F3-FGFR4-transfected cells. Cells were put in an incubator at 37° C. and 5% CO2. After 24 hours, 10 μl of Alamar Blue solution (0.5 mM K3Fe(CN)6, 0.5 mM KaFe(CN)6, 0.15 mM Resazurin and 100 mM Phosphate Buffer) was added to the wells, incubated for 4 hours at 37° C. and 5% CO2 before RFU's (Relative Fluorescence Units) (ex. 540 nm., em. 590 nm.) were measured in a flurorescence plate reader.

[2] = target: FGFR4 (h) (Homo sapiens, UniProt P22455); test: FGFR4 (enzymatic assay), TR-FRET; type: biochemical; details: read-out: FGFR 4 pIC50 (converted)
Method: In a final reaction volume of 30 μL, FGFR4 (h) (60 ng/ml) was incubated with 50 mM HEPES pH 7.5, 6 mM MnCl2, 1 mM DTT, 0.1 mM Na3VO4, 0.01% Triton-X-100, 500 nM Btn-Flt3 and 5 μM ATP in the presence of compound (1% DMSO final). […] Time-Resolved Fluorescence Resonance Energy Transfer (TR-FRET) signal (ex340 nm. Em 620 nm, em 655 nm) was measured afterwards and results are expressed in RFU (Relative Fluorescence Units).

[3] = system: Ba/F3-FGFR3-transfected cells in the presence of 10 ng/ml murine IL3; test: Ba/F3-FGFR3 (plus IL3) cellular proliferation counterscreen, Alamar Blue; type: cell-based; details: Mus musculus; plus 10 ng/ml murine IL3; 384 well; read-out: BAF3-FGFR 3 (PLUS IL3) 384 well pIC50 (converted)
Method: Ba/F3-FGFR3 (Minus IL3 or Plus IL3) (Cellular Proliferation Assay)
as §1, with “Ba/F3-FGFR3-transfected” for “Ba/F3-FGFR4-transfected”
(§2) As a counterscreen the same experiment was performed in the presence of 10 ng/ml murine IL3.
as §1, with “a 96” for “a 384”, “plate, 180” for “plate, 100 nl of compound dilution in DMSO was sprayed before adding 50”, “containing 10000” for “containing 20000”, “of Ba/F3-FGFR3-transfected cells were pipette and 20 μl of compound dilution in DMSO was added.” for “of Ba/F3-FGFR4-transfected cells.”, “hours, 40” for “hours, 10”

[4] = system: Ba/F3-KDR-transfected cells in the presence of 10 ng/ml murine IL3; test: Ba/F3-KDR (plus IL3) cellular proliferation counterscreen, Alamar Blue; type: cell-based; details: Mus musculus; plus 10 ng/ml murine IL3; read-out: BAF3-KDR (PLUS IL3) 384 well pIC50 (converted)
Method: (§3) Ba/F3-KDR (Minus IL3 or Plus IL3) (Cellular Proliferation Assay)
[…] Cells were put in an incubator at 37° C. and 5% CO2. After 24 hours, 10 μl of Alamar Blue solution (0.5 mM K3Fe(CN)6, 0.5 mM KaFe(CN)6, 0.15 mM Resazurin and 100 mM Phosphate Buffer) was added to the wells, incubated for 4 hours at 37° C. and 5% CO2 before RFU's (Relative Fluorescence Units) (ex. 540 nm., em. 590 nm.) were measured in a flurorescence plate reader.
as §2
as §1, with “a 96” for “a 384”, “plate, 180” for “plate, 100 nl of compound dilution in DMSO was sprayed before adding 50”, “containing 10000” for “containing 20000”, “of Ba/F3-KDR-transfected cells were pipette and 20 μl of compound dilution in DMSO was added.” for “of Ba/F3-FGFR4-transfected cells.”, “hours, 40” for “hours, 10”, “CO2” for “CO2 before”

[5] = target: Ba/F3-KDR-transfected cells (Homo sapiens, UniProt P35968); test: Ba/F3-KDR (minus IL3) cellular proliferation assay, Alamar Blue; type: cell-based; details: minus IL3
Method: as §3
as §1, with “Ba/F3-KDR-transfected” for “Ba/F3-FGFR4-transfected”
as §2
as §1, with “a 96” for “a 384”, “plate, 180” for “plate, 100 nl of compound dilution in DMSO was sprayed before adding 50”, “containing 10000” for “containing 20000”, “of Ba/F3-KDR-transfected cells were pipette and 20 μl of compound dilution in DMSO was added.” for “of Ba/F3-FGFR4-transfected cells.”, “hours, 40” for “hours, 10”, “CO2” for “CO2 before”

Chain of Ba/F3-KDR-transfected cells (P35968 whole entry, change not shown): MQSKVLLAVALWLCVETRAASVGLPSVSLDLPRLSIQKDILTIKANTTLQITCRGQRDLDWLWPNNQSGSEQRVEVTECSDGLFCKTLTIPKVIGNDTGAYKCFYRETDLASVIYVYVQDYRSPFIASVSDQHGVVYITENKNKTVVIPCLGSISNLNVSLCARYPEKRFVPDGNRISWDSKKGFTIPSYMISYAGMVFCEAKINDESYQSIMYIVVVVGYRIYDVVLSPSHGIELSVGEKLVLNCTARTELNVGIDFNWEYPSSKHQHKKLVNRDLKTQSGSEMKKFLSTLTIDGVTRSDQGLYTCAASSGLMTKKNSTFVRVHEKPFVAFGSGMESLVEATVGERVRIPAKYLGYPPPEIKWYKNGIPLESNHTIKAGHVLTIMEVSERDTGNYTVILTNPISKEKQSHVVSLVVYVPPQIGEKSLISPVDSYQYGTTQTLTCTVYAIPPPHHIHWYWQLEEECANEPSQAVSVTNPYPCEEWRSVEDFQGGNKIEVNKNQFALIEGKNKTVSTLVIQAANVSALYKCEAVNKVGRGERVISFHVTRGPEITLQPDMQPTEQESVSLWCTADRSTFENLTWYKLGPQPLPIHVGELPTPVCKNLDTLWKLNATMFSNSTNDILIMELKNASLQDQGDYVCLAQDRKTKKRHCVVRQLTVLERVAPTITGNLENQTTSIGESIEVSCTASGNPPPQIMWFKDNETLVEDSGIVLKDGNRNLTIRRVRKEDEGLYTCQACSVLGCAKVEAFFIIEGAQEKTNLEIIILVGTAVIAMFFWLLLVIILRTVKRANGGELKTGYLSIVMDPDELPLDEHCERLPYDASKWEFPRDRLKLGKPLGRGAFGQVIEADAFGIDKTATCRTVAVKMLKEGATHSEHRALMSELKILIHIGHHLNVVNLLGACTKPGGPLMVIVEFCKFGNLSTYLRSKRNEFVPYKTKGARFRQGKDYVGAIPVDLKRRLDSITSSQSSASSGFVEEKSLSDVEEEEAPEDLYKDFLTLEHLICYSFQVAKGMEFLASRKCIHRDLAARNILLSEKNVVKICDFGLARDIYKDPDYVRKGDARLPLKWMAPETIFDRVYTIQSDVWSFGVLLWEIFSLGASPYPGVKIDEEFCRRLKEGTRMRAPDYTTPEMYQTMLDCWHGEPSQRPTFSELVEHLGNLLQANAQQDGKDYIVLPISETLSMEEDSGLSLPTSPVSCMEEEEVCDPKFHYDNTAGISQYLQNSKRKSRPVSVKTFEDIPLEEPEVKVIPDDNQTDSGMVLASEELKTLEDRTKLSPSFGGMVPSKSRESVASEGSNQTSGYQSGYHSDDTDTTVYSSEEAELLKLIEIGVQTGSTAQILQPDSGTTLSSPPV
Chain of Ba/F3-FGFR4-transfected cells (P22455 whole entry, change not shown): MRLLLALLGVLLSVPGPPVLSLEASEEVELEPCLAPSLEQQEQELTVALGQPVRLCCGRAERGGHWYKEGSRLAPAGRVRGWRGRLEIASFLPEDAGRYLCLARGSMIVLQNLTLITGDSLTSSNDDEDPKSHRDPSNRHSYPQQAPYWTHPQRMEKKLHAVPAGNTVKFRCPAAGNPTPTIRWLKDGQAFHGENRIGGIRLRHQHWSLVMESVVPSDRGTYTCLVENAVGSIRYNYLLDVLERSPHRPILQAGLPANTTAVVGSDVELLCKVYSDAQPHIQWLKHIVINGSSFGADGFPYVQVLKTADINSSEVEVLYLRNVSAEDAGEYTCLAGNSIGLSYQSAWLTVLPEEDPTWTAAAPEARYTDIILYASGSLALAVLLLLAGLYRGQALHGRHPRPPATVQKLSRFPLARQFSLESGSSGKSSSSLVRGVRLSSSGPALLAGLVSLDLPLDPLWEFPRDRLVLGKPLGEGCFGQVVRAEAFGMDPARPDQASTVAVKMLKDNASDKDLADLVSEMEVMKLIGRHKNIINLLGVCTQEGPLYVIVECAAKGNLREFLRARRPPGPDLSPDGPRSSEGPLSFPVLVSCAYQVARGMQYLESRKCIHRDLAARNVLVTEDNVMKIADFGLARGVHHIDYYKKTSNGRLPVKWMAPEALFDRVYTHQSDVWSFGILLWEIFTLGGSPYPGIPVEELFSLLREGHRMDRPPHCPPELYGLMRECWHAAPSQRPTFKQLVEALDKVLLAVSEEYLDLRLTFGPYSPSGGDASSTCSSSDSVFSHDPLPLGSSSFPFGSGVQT
Chain of FGFR4 (h) (P22455 22-802): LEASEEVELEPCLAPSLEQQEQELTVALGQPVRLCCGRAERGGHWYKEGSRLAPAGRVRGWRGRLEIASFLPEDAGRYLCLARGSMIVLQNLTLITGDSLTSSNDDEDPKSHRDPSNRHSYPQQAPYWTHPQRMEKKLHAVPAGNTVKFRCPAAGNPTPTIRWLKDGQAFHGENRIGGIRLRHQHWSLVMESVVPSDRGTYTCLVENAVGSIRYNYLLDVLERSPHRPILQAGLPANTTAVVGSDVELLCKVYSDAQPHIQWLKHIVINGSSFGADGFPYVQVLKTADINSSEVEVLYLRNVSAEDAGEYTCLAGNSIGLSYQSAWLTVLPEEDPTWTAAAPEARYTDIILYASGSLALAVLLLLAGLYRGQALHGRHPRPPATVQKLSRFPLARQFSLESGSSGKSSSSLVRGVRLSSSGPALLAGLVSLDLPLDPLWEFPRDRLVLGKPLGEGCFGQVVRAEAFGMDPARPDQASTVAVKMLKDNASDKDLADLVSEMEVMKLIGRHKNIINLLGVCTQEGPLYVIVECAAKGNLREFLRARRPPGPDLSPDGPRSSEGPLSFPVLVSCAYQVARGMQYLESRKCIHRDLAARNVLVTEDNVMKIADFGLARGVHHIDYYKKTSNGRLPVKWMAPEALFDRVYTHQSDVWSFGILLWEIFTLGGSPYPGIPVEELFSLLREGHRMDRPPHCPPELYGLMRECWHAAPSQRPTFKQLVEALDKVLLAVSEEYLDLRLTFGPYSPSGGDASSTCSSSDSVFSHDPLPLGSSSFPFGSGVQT

| Structure (SMILES) | BAF3-FGFR4 pIC50 [1] | IC50 [2] [µM] | BAF3-KDR (MIN IL3) 384 well pIC50 [5] | IC50 [3] [µM] | IC50 [4] [µM] |
| --- | --- | --- | --- | --- | --- |
| CO/N=C(\C)c1cnc2ccc(N(CCO)c3cc(OC)cc(OC)c3)cc2n1 [Compound 29] | <5 | 0.234 | <5 | > 10 | > 10 |
| COc1cc(OC)cc(N(CCN2CCOCC2)c2ccc3ncc(-c4ccc(NC(=O)N5CCOCC5)nc4)nc3c2)c1 [Compound 35] | 6.0 | 0.0676 | 5.11 | > 10 | > 10 |
| COc1cc(OC)cc(N(CCNC(C)C)c2ccc3ncc(N4CCC(CN)CC4)nc3c2)c1 [Compound 67] | 6.2 | 0.2 | 5 | > 10 | > 10 |
| COc1cc(OC)cc(N(CCNC(C)C)c2ccc3ncc(-n4cnc(CO)c4)nc3c2)c1 [Compound 77] | 6.9 | 0.0525 | 5.29 | > 10 | > 10 |
| COc1cc(OC)cc(N(CCN)c2ccc3ncc(-c4ccn(C)c4)nc3c2)c1 [Compound 79] | 6.7 | 0.00851 | 5.45 | > 10 | > 10 |
| CNc1ccc(-c2cnc3ccc(N(CCCNCC(F)(F)F)c4cc(OC)cc(OC)c4)cc3n2)cn1 [Compound 129] | 5.4 | 0.0871 | <5 | > 10 | > 10 |
| COc1cc(OC)cc(N(CCO)c2ccc3ncc(-c4ccnc(C(=O)NCCCCCO)c4)nc3c2)c1 [Compound 139] | <5 | 0.0977 | <5 | > 10 | > 10 |
| COc1cc(OC)cc(N(CCCNCC(F)(F)F)c2ccc3ncc(-c4ccnc(Cl)c4)nc3c2)c1 [Compound 145] | <5.35 | 0.871 | <5 | > 10 | > 10 |
| COc1cc(OC)cc(N(CCCNCC(F)(F)F)c2ccc3ncc(-c4ccnc(C(=O)NCCCCCO)c4)nc3c2)c1 [Compound 150] | ~5.0 | 0.224 | <5 | > 10 | > 10 |
| COc1cc(OC)cc(N(CCO)c2ccc3ncc(-c4ccccc4CCO)nc3c2)c1 [Compound 151] | <5 | 0.891 | <5 | > 10 | > 10 |
| COc1cc(OC)cc(N(CCCNCC(F)(F)F)c2ccc3ncc(C(=O)NCCN4CCOCC4)nc3c2)c1 [Compound 158] | 5.1 | > 1 | <5 | > 10 | > 10 |
| COc1cc(OC)cc(N(CCNC(C)C)c2ccc3ncc(C(=O)NCCCN4CCN(C)CC4)nc3c2)c1 [Compound 159] | ~5.5 | 0.49 | <5 | > 10 | > 10 |
| COc1cc(OC)cc(N(CCNC(C)C)c2ccc3ncc(C(=O)NCCN4CCOCC4)nc3c2)c1 [Compound 160] | 5.8 | 0.309 | <5 | > 10 | > 10 |
| COc1cc(OC)cc(N(CCNC(C)C)c2ccc3ncc(NCC4CCNCC4)nc3c2)c1 [Compound 161] | <5 | 0.331 | <5 | > 10 | > 10 |
| COc1cc(OC)cc(N(CCNC(C)C)c2ccc3ncc(-n4cnc(COC(C)=O)c4)nc3c2)c1 [Compound 167] | 6.4 | 0.0316 | <5 | > 10 | > 10 |

Continued, in another order:

| BAF3-FGFR4 pIC50 [1] | IC50 [2] [µM] | BAF3-KDR (MIN IL3) 384 well pIC50 [5] | Structure (SMILES) | IC50 [3] [µM] | IC50 [4] [µM] |
| --- | --- | --- | --- | --- | --- |
| 5.7 | 0.282 | <5 | COc1cc(OC)cc(N(CCN2CCN(C(C)=O)CC2)c2ccc3ncc(-c4ccc(N)nc4)nc3c2)c1 [Compound 68] | > 10 | > 10 |
| 5.6 | 0.0646 | <5 | COc1cc(OC)cc(N(CCCO)c2ccc3ncc(-c4ccnc(F)c4)nc3c2)c1 [Compound 142] | > 10 | > 10 |
| 5.4 | 0.0955 | <5 | COc1cc(OC)cc(N(CCO)c2ccc3ncc(-c4ccc(N5CCN(C(=O)OC(C)(C)C)CC5)cc4)nc3c2)c1 [Compound 156] | > 10 | > 10 |
| <5 | 0.12 | 5.3 | COc1cc(OC)cc(N(CCO)c2ccc3ncc(-c4ccc(N5CCN(C)CC5)nc4)nc3c2)c1 [Compound 163] | > 10 | 7.59 |
| 6.6 | 0.0288 | 5.36 | COc1cc(OC)cc(N(CCO)c2ccc3ncc(-c4ccc(N5CCNCC5)nc4)nc3c2)c1 [Compound 165] | > 10 | > 10 |
| 6.7 | 0.00724 | 5.55 | COc1cc(OC)cc(N(CCO)c2ccc3ncc(-c4ccc(N5CCNCC5)cc4)nc3c2)c1 [Compound 166] | ~6.03 | 6.03 |
| 6.9 | 0.00832 | 5.75 | COc1cc(OC)cc(N(CCNC(C)C)c2ccc3ncc(-c4ccc(N5CCOCC5)nc4)nc3c2)c1 [Compound 168] | ~9.33 | 7.08 |
| 6.0 | 0.0537 | 5.1 | COc1cc(OC)cc(N(CCN2CCOCC2)c2ccc3ncc(-c4ccc(N)nc4)nc3c2)c1 [Compound 169] | > 10 | > 10 |
